pKi: −log10 of the molar value.
biological target: truncated PI3Kα (p110α/iSH2 p85α) (Homo sapiens (Human), UniProt P42336); assay: PI3KA_Act fluorescence polarization kinase assay (Ki); assay type: biochemical; details: 1 mM ATP
Method in brief: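 Ki values result from fitting fluorescence polarization signals to the Morrison equation for tight-binding competitive inhibitors. The detector was GST-Grp1 PH domain with TAMRA-PIP3, read after a 30 min room-temperature reaction of 0.5 nM truncated PI3Kα and 30 μM PIP2 at pH 7.4 in HEPES/NaCl/MgCl2/DTT/CHAPS buffer. Compounds were tested as 12-point 3-fold dilutions from 3 μM.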

truncated PI3Kα (p110α/iSH2 p85α), sequence (P42336 whole entry, the tested form may be a part): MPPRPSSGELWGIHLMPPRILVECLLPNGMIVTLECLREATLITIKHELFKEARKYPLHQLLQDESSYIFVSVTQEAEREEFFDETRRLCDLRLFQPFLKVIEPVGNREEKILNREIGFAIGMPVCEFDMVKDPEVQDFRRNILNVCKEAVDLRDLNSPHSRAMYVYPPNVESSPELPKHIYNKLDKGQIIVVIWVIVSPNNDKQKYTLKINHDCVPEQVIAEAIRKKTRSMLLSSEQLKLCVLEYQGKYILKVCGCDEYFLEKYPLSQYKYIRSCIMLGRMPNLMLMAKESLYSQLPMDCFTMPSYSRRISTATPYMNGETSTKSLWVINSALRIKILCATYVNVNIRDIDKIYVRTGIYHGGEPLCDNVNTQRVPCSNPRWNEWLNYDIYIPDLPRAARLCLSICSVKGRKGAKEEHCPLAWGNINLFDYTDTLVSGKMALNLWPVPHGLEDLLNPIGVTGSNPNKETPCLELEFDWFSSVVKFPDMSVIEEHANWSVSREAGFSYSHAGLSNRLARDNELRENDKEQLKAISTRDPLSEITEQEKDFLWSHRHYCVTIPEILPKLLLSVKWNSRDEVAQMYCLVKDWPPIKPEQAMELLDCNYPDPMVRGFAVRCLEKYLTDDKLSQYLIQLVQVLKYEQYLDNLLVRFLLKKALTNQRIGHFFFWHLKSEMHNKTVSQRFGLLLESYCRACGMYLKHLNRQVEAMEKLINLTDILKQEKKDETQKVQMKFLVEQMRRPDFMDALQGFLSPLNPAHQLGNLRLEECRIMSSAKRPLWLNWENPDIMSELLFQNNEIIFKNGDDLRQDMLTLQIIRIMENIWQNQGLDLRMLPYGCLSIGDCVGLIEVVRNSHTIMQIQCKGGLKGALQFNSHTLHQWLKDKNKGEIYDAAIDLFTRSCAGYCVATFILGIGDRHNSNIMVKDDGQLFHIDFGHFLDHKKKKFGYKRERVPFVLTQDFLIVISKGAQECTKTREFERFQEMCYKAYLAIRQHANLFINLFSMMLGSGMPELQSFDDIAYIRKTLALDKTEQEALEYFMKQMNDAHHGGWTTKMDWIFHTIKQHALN

Row | Structure (SMILES) | PI3KA_Act Ki [pM] | pKi
1 | CNC(=O)CN1CC[C@](C)(N2CCc3c(-c4cnc(N)nc4)nc(N4CCOCC4)nc32)C1 [Example 401, 2-{(3S)-3-[4-(2-aminopyrimidin-5-yl)-2-(morpholin-4-yl)-5,6-dihydro-7H-pyrrolo[2,3-d]pyrimidin-7-yl]-3-methylpyrrolidin-1-yl}-N-methylacetamide] | 109 | 
2 | CN(C)C(=O)CN1CC[C@@](C)(N2CCc3c(-c4cnc(N)nc4)nc(N4CCOCC4)nc32)C1 [Example 402, 2-{(3R)-3-[4-(2-aminopyrimidin-5-yl)-2-(morpholin-4-yl)-5,6-dihydro-7H-pyrrolo[2,3-d]pyrimidin-7-yl]-3-methylpyrrolidin-1-yl}-N,N-dimethylacetamide] | 872 | 
3 | CN(C)C(=O)CN1CC[C@](C)(N2CCc3c(-c4cnc(N)nc4)nc(N4CCOCC4)nc32)C1 [Example 403, 2-{(3S)-3-[4-(2-aminopyrimidin-5-yl)-2-(morpholin-4-yl)-5,6-dihydro-7H-pyrrolo[2,3-d]pyrimidin-7-yl]-3-methylpyrrolidin-1-yl}-N,N-dimethylacetamide] | 53 | 
4 | CCOC(=O)N1CC[C@@](C)(N2CCc3c(-c4cnc(N)nc4)nc(N4CCOCC4)nc32)C1 [Example 404, ethyl (3R)-3-[4-(2-aminopyrimidin-5-yl)-2-(morpholin-4-yl)-5,6-dihydro-7H-pyrrolo[2,3-d]pyrimidin-7-yl]-3-methylpyrrolidine-1-carboxylate] | 128 | 
5 | CCOC(=O)N1CC[C@](C)(N2CCc3c(-c4cnc(N)nc4)nc(N4CCOCC4)nc32)C1 [Example 405, ethyl (3S)-3-[4-(2-aminopyrimidin-5-yl)-2-(morpholin-4-yl)-5,6-dihydro-7H-pyrrolo[2,3-d]pyrimidin-7-yl]-3-methylpyrrolidine-1-carboxylate] | <18 | 
6 | CC(C)OC(=O)N1CC[C@](C)(N2CCc3c(-c4cnc(N)nc4)nc(N4CCOCC4)nc32)C1 [Example 406, propan-2-yl (3S)-3-[4-(2-aminopyrimidin-5-yl)-2-(morpholin-4-yl)-5,6-dihydro-7H-pyrrolo[2,3-d]pyrimidin-7-yl]-3-methylpyrrolidine-1-carboxylate] | <18 | 
7 | CC(C)OC(=O)N1CC[C@@](C)(N2CCc3c(-c4cnc(N)nc4)nc(N4CCOCC4)nc32)C1 [Example 407, propan-2-yl (3R)-3-[4-(2-aminopyrimidin-5-yl)-2-(morpholin-4-yl)-5,6-dihydro-7H-pyrrolo[2,3-d]pyrimidin-7-yl]-3-methylpyrrolidine-1-carboxylate] | 235 | 
8 | CC(C)(C)OC(=O)N1C[C@@H](N2CCc3c(-c4cnc(N)nc4)nc(N4CCOCC4)nc32)[C@@H](F)C1 [Example 408, tert-butyl (3R,4S)-3-[4-(2-aminopyrimidin-5-yl)-2-(morpholin-4-yl)-5,6-dihydro-7H-pyrrolo[2,3-d]pyrimidin-7-yl]-4-fluoropyrrolidine-1-carboxylate] |  | 8.96
9 | CC(C)(C)OC(=O)N1C[C@@H](F)[C@@H](N2CCc3c(-c4cnc(N)nc4)nc(N4CCOCC4)nc32)C1 [Example 409, tert-butyl (3S,4R)-3-[4-(2-aminopyrimidin-5-yl)-2-(morpholin-4-yl)-5,6-dihydro-7H-pyrrolo[2,3-d]pyrimidin-7-yl]-4-fluoropyrrolidine-1-carboxylate] | 168 | 
10 | CC[C@@]1(N2CCc3c(-c4cnc(N)nc4)nc(N4CCOCC4)nc32)CCN(C(=O)OC(C)(C)C)C1 [Example 410, tert-butyl (3R)-3-[4-(2-aminopyrimidin-5-yl)-2-(morpholin-4-yl)-5,6-dihydro-7H-pyrrolo[2,3-d]pyrimidin-7-yl]-3-ethylpyrrolidine-1-carboxylate] |  | 9.58
11 | CC[C@]1(N2CCc3c(-c4cnc(N)nc4)nc(N4CCOCC4)nc32)CCN(C(=O)OC(C)(C)C)C1 [Example 411, tert-butyl (3S)-3-[4-(2-aminopyrimidin-5-yl)-2-(morpholin-4-yl)-5,6-dihydro-7H-pyrrolo[2,3-d]pyrimidin-7-yl]-3-ethylpyrrolidine-1-carboxylate] | <18 | 
12 | CC(C)(N)COC(=O)N1CC[C@](C)(N2CCc3c(-c4cnc(N)nc4)nc(N4CCOCC4)nc32)C1.Cl [Example 412, 2-amino-2-methylpropyl (3S)-3-[4-(2-aminopyrimidin-5-yl)-2-(morpholin-4-yl)-5,6-dihydro-7H-pyrrolo[2,3-d]pyrimidin-7-yl]-3-methylpyrrolidine-1-carboxylate hydrochloride] | <18 | 
13 | C[C@]1(N2CCc3c(-c4cnc(N)nc4)nc(N4CCOCC4)nc32)CCN(C(=O)OCC2CNC2)C1.Cl [Example 413, azetidin-3-ylmethyl (3S)-3-[4-(2-aminopyrimidin-5-yl)-2-(morpholin-4-yl)-5,6-dihydro-7H-pyrrolo[2,3-d]pyrimidin-7-yl]-3-methylpyrrolidine-1-carboxylate hydrochloride] | <18 | 
14 | CC1(OC(=O)N2CC[C@](C)(N3CCc4c(-c5cnc(N)nc5)nc(N5CCOCC5)nc43)C2)CNC1.Cl [Example 414, 3-methylazetidin-3-yl (3S)-3-[4-(2-aminopyrimidin-5-yl)-2-(morpholin-4-yl)-5,6-dihydro-7H-pyrrolo[2,3-d]pyrimidin-7-yl]-3-methylpyrrolidine-1-carboxylate hydrochloride] | 39 | 
15 | C[C@]1(N2CCc3c(-c4cnc(N)nc4)nc(N4CCOCC4)nc32)CCN(C(=O)OC2CNC2)C1.Cl [Example 415, azetidin-3-yl (3S)-3-[4-(2-aminopyrimidin-5-yl)-2-(morpholin-4-yl)-5,6-dihydro-7H-pyrrolo[2,3-d]pyrimidin-7-yl]-3-methylpyrrolidine-1-carboxylate hydrochloride] | <18 | 
16 | CN1CC[C@@H](OC(=O)N2CC[C@](C)(N3CCc4c(-c5cnc(N)nc5)nc(N5CCOCC5)nc43)C2)C1 [Example 416, (3R)-1-methylpyrrolidin-3-yl (3S)-3-[4-(2-aminopyrimidin-5-yl)-2-(morpholin-4-yl)-5,6-dihydro-7H-pyrrolo[2,3-d]pyrimidin-7-yl]-3-methylpyrrolidine-1-carboxylate] | <18 | 
17 | CN1CC[C@H](OC(=O)N2CC[C@](C)(N3CCc4c(-c5cnc(N)nc5)nc(N5CCOCC5)nc43)C2)C1 [Example 417, (3S)-1-methylpyrrolidin-3-yl (3S)-3-[4-(2-aminopyrimidin-5-yl)-2-(morpholin-4-yl)-5,6-dihydro-7H-pyrrolo[2,3-d]pyrimidin-7-yl]-3-methylpyrrolidine-1-carboxylate] | <18 | 
18 | CN1CC[C@](C)(N2CCc3c(-c4cnc(N)nc4)nc(N4CCOCC4)nc32)C1 [Example 418, 5-{7-[(3S)-1,3-dimethylpyrrolidin-3-yl]-2-(morpholin-4-yl)-6,7-dihydro-5H-pyrrolo[2,3-d]pyrimidin-4-yl}pyrimidin-2-amine] | 320 | 
19 | CN1CC[C@@](C)(N2CCc3c(-c4cnc(N)nc4)nc(N4CCOCC4)nc32)C1 [Example 419, 5-{7-[(3R)-1,3-dimethylpyrrolidin-3-yl]-2-(morpholin-4-yl)-6,7-dihydro-5H-pyrrolo[2,3-d]pyrimidin-4-yl}pyrimidin-2-amine] | 1990 | 
